US20240003914A1 (THE SCRIPPS RESEARCH INSTITUTE, priority 2020, published 2024)

Columns and labels:
C57BL/6 mice = test: Whole blood NAD levels after oral treatment; assay type: in vivo, mouse; conditions: 6 mg/kg SR005 or 100 mg/kg NAM, normalized by baseline (FIG. 8)
From the text: Blood was collected and NAD detected as described in FIGS. 1A-1C. NAD values were normalized by baseline level for each mouse. Each line represents data for one mouse.

NADases = test: NAD protection from degradation by NADases in brain homogenate; assay type: biochemical, mouse; conditions: inhibitor added to aliquots of a brain sample after homogenisation; duplicate samples (FIG. 1F)
Procedure: Brain homogenates are disrupted and clarified by sonication (0.5 second per cycle, 45 cycles, 50% power) followed by centrifugation at 12,000 rpm, RT for 5 minutes. Supernatants are collected and fractionated using Amicon Ultra-2 centrifugal units with a 30 kDa cut-off. Flow-through is collected and NAD is measured using a cycling assay (NAD+/NADH-GloTM (Promega). The NAD+/NADH-GloTM assay is a bioluminescent, homogeneous assay for the detection of total NAD metabolite levels comprising the oxidized and reduced forms of NAD (NAD+ and NADH, respectively). An NAD cycling enzyme is used to convert NAD+ to NADH. In the presence of NADH, the provided reductase enzyme reduces a proluciferin reductase substrate to form luciferin. Luciferin is then quantified using Ultra-Glo recombinant luciferase, and the light signal produced is proportional to the amount of NAD+ and NADH in the sample. Cycling between NAD+ and NADH by the NAD cycling enzyme and reductase increases assay sensitivity and provides selectivity for nonphosphorylated NAD+ and NADH compared to the phosphorylated forms NADP+ and NADPH. Reading is performed between 10 and 50 minutes during the linear increase of the signal in a luminescence reader. NAD values are normalized by total protein concentrations. […] Error bars of duplicate samples are shown. […] Error bars of duplicate samples are shown.

Structure (SMILES) | blood NAD levels after treatment (C57BL/6 mice) | NAD protection from degradation by NADases (NADases)
NC(=O)c1cccnc1 [NAM, nicotinamide] | Increased blood NAD levels | –
O=c1cc(-c2ccc(O)cc2)oc2cc(O)cc(O)c12 [apigenin] | – | absence of protection
